Here are results for 2 substances from patent US10828372B2, “Compositions and methods for the inhibition of fibrosis” (WISCONSIN ALUMNI RESEARCH FOUNDATION, priority 2017, dated 2020).

Series [1] deals with human proximal tubular epithelial cells (HK-2). Description: Cell viability of proximal tubular epithelial cells (AlamarBlue). It counts as cell-based. As to conditions: doses up to 500 nM. An excerpt:
Endogenous (cellular) fibronectin assembly assay: This immunochemical assay measures the ECM incorporation of EDA-containing fibronectin synthesized by human fibroblasts and human proximal tubular epithelial cells. Human proximal epithelial cells, HK-2 cells, were obtained from ATCC (CRL-2190). The EDA+ fibronectin is a splice variant synthesized and secreted by a variety of cells mostly during embryonic development and during wound healing, ECM remodeling, or fibrotic conditions in the adult. […] Fluorescence of AlamarBlue® was read at 555 nm excitation and 585 nm emission. […] Similar to the measurement of exogenous A488-FN fluorescence, A488-EDA fluorescence was read using microplate reader equipped with bottom-readout capabilities at 485 nm excitation and 525 nm emission. Fluorescence of wells to which A488-IgG was added, i.e., background green fluorescence from non-specific IgG binding and from the cell monolayer was subtracted from fluorescence values of wells incubated with A488-EDA. Data is presented for fibronectin fibrillogenesis or cell viability as percent of fluorescence values (AlexaFluor® 488 fluorescence or AlamarBlue®, respectively) for wells with no peptides.

Series [2] concerns AlexaFluor 488-plasma fibronectin (A488-FN). The series can be described thus: Microtiter exogenous plasma fibronectin matrix assembly assay (AH1F fibroblasts). Format: cell-based, human. As to conditions: for inhibition of fibronectin fibrillogenesis: concentrations up to 20 μM. The method, then:
Microtiter fibronectin matrix assembly assays: Exogenous plasma fibronectin matrix assembly assay: Binding and incorporation of AlexaFluor® 488-plasma fibronectin (A488-FN) to fibroblast monolayers (human foreskin fibroblasts, AH1F cells was carried out using methods known in the art. Briefly, fibroblasts (60000 per well) were allowed to adhere and spread for 2 hours in microtiter plates in 2% fetal calf serum (FCS)-containing DMEM. Peptides or modulators to be tested were added followed by 28 nM A488-FN. Cell monolayers with or without peptides and A488FN were incubated overnight at 37° C. with 5% CO2. Cell monolayers in microwells were washed with PBS or HBSS containing Ca^2+, Mg^2+. Fluorescence in 96-well plates was read using a microplate reader using bottom-readout capabilities at 485 nm excitation and 525 nm emission with 20 nm bandwidths. To estimate cell viability per well after the washes and measurement of fluorescence, an equal volume of luminescence reagent (Cell Titer-Glo®) was added followed by quantification of luminescence. Fluorescence of wells to which A488FN had not been added, i.e. intrinsic fluorescence of the cell monolayer was subtracted from fluorescence values of wells containing ligand. Data is presented respectively for fibronectin fibrillogenesis or cell viability as percent of fluorescence or luminescence values for wells with no peptides. Microplate microscopy was used to ascertain that fluorescence measurements correspond to fibrillary fibronectin.
To determine whether PEG-FUD retained its ability to inhibit fibronectin fibrillogenesis, PEG-FUD and FUD were compared in cell-based fibronectin matrix assembly assays. The ability of PEG-FUD to inhibit the incorporation of exogenous fibronectin derived from plasma and also of fibronectin endogenously produced by the cultured cells was measured, since fibrosis is likely to contain fibronectin from both sources. Shown in FIG. 12 is the level of fibrils formed from exogenously added A488-FN fibrils in the presence of increasing amounts FUD or PEG-FUD. FIGS. 13 and 14 show endogenous EDA+-fibronectin fibrillogenesis in human fibroblast and human proximal tubular epithelial cells, respectively. In all fluorescence panels, it is evident that PEG-FUD is as efficient as FUD at inhibiting fibronectin assembly dose-dependently with an IC50 of approximately 30 nM. As previously reported, cell viability is negligibly affected by FUD, and PEG-FUD behaves almost identically. There was an approximately 20% decrease in fibroblast viability at the highest concentration of FUD tested (500 nM) with PEG-FUD retaining fibroblast viability almost at 100%. […] Human proximal tubular epithelial cell viability was retained at approximately 100% with treatment by both FUD and PEG-FUD.
Having established the suitability of PEG-FUD as inhibitor of FN fibrillogenesis, a mutated form of FUD, mFUD, was tested as a control peptide. mFUD was PEGylated as described above and the conjugate tested in the exogenous A488-FN binding assay as described for FIG. 1A. […] A maximum concentration of 20 μM was tested because it approximates the concentration used in vivo, both in this study and in the liver fibrosis study.

Series [3] concerns breast cancer. The series can be described thus: Murine models of breast cancer. As to conditions: mouse, in vivo.
[4] abbreviates: exogenous A488-FN, doses up to 20 μM, read-out: IC50 of fibrillogenesis inhibition.
Where [5] appears, read: exogenous A488-plasma fibronectin, human fibroblasts, doses up to 500 nM, read-out: IC50 of fibronectin assembly inhibition.

Like-named read-outs stand apart in the source and are kept apart here. Where no end group is shown, it is not given here.

Sequence of AlexaFluor 488-plasma fibronectin (A488-FN) (P02751 32-608 limits assumed): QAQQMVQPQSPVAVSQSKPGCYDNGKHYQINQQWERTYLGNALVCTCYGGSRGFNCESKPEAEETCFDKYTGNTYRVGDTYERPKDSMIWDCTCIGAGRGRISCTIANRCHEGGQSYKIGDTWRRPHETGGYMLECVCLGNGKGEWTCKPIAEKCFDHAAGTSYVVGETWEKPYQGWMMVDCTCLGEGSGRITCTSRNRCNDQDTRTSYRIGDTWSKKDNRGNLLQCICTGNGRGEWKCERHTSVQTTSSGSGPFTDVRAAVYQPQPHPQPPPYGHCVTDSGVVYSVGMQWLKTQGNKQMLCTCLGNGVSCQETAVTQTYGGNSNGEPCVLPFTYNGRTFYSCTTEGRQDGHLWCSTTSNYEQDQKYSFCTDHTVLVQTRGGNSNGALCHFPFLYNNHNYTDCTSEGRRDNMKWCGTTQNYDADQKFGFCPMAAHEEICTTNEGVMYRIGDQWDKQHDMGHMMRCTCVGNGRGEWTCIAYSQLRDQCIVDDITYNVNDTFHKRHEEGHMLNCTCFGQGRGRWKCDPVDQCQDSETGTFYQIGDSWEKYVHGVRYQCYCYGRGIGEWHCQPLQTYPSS

For the substance “FUD: 49 amino acid FUD peptide, SEQ ID NO: 1, recombinantly expressed, His-tag removed; inhibitor of fibronectin fibrillogenesis (KDQSPLAGESGETEYITEVYGNQQNPVDIDKKLPNETGFSGNMVETEDT; human) [reference compound]”, the “human proximal tubular epithelial cell viability” value in series [1] is “approximately 100%”. The “inhibition of assembly of plasma fibronectin by fibroblasts” value in series [2] (doses up to 500 nM) is given as 70%. In addition, the “inhibition of fibronectin fibrillogenesis” value in series [2] (exogenous A488-FN) was determined as 60%. Also, the figures for the concentration for half-maximal inhibition (IC50) in series [2] (setting [4]) and in series [2] (setting [5]) were 25 to 30 nM and ~30 nM, respectively. For the same substance, in series [3], the “effect on tumor volume” value is “inhibit tumor volume”.
With “PEG-FUD: PEGylated FUD prepared as in Example 1, PEG size not stated; approximately 27 kDa by mass spectrometry, likely the 20 kDa conjugate (KDQSPLAGESGETEYITEVYGNQQNPVDIDKKLPNETGFSGNMVETEDT; not fully specified (N-terminus); also: PEG size not given here)”, the “human proximal tubular epithelial cell viability” value in series [1] is “approximately 100%”. In addition, the “inhibition of assembly of plasma fibronectin by fibroblasts” value in series [2] (doses up to 500 nM) was 70%. For the same substance, the “inhibition of fibronectin fibrillogenesis” value in series [2] (exogenous A488-FN) turned out to be 60%. The results for the 50% inhibitory concentration (IC50) in series [2] (setting [4]) and in series [2] (setting [5]) were 25 to 30 nM and ~30 nM, respectively. Also, the “effect on tumor volume” value in series [3] is reported as “inhibit tumor volume”.

The term IC50 denotes the concentration at which inhibition is half-maximal.
